The values that follow come from PubChem BioAssay (NCI).

Test systems include IGROV1 ovarian; ACHN renal; NCI-H226 lung; UACC-62 melanoma; K-562 leukemia; NCI-H460 lung; SW-620 colon; HS 578T breast; MDA-N; SK-MEL-5 melanoma; MDA-MB-435; RXF 393 renal; MDA-MB-231 breast; MCF7 breast; HL-60(TB) leukemia; HOP-92 NSCLC; SK-MEL-28 melanoma; SNB-75 CNS.
Common to all, as to assay: growth of human tumour cells (NCI), 48 h

Several values for one entry are separate records, joined by “and”; a condition that tells them apart may be missing. Equal values may be shown once.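 Dose response: 5 concentrations. Exposure: 48 h. Format: 96-well plates. Endpoint: linear interpolation; highest concentration if not reached. Abbreviation: GI50, concentration required for 50% inhibition of growth. TGI: total growth inhibition.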

As for `O=C1C(Cl)C(c2cccc(Br)c2)N1c1c(O)c(Cl)cc(Br)c1Cl` (stereo unspecified), the TGI with IGROV1 ovarian was found to be 10.7 µM; in the assay with ACHN renal, 37.6 µM; in the assay with NCI-H226 lung, 51.8 µM; in the assay with UACC-62 melanoma, 33.8 µM; in the assay with K-562 leukemia, 37.1 µM; in the assay on NCI-H460 lung, 27.1 µM. The TGI turned out to be 41.4 µM with SW-620 colon; 24 µM in the assay on HS 578T breast; 53.3 µM in the assay with MDA-N; 27.2 µM in the assay on SK-MEL-5 melanoma; 31.1 µM in the assay on MDA-MB-435; 24.3 µM with RXF 393 renal. In addition, the TGI in the assay with MDA-MB-231 breast stood at 46 µM; with MCF7 breast, 25.8 µM; in the assay with HL-60(TB) leukemia it was 53.5 µM; with HOP-92 NSCLC it was 29 µM.
For the compound `C=CCN1C[C@@H](C)N([C@@H](c2ccccc2)c2ccc(C(=O)N(CC)CC)cc2)C[C@@H]1C`, the TGI with IGROV1 ovarian, with ACHN renal, in the assay on NCI-H226 lung, in the assay on UACC-62 melanoma, in the assay on SW-620 colon and in the assay with SK-MEL-28 melanoma was greater than 100 µM each time. In addition, the TGI with HS 578T breast, in the assay on MDA-N, in the assay on SK-MEL-5 melanoma, in the assay with MDA-MB-435, in the assay on MDA-MB-231 breast and with MCF7 breast was greater than 100 µM throughout. In addition, the figures for the TGI with HL-60(TB) leukemia and in the assay on HOP-92 NSCLC were greater than 100 µM and 89 µM, respectively.
`O=C(O)c1nc2cc(C(F)(F)F)ccc2[nH]c1=O`: the TGI with IGROV1 ovarian, in the assay with ACHN renal, in the assay on NCI-H226 lung, in the assay with UACC-62 melanoma, in the assay with K-562 leukemia and in the assay with NCI-H460 lung was greater than 100 µM in each case. Further, the TGI in the assay on SW-620 colon, in the assay with SK-MEL-28 melanoma, with HS 578T breast, in the assay on MDA-N, with SK-MEL-5 melanoma and in the assay on MDA-MB-435 was greater than 100 µM throughout. Also, the TGI in the assay with MDA-MB-231 breast, in the assay on MCF7 breast, in the assay on HL-60(TB) leukemia and in the assay with HOP-92 NSCLC was greater than 100 µM each time.
`O=C1C=C(NCCc2cc(Cl)c(O)c(Cl)c2)C(=O)c2[nH]cnc21`: the TGI in the assay with IGROV1 ovarian was 38.8 µM; in the assay on ACHN renal, greater than 100 µM; with UACC-62 melanoma, 41.1 µM; in the assay on K-562 leukemia it was 55.4 µM; in the assay on NCI-H460 lung, 68.3 µM; in the assay with SW-620 colon, greater than 100 µM. Further, the TGI with SK-MEL-28 melanoma is 65.9 µM; in the assay with HS 578T breast, greater than 100 µM; in the assay with MDA-N, 33.8 µM; in the assay on SK-MEL-5 melanoma it was 31.5 µM; in the assay on MDA-MB-435, 30.3 µM; in the assay on MDA-MB-231 breast it was greater than 100 µM. Also, the TGI in the assay on MCF7 breast turned out to be 64.8 µM; in the assay with HL-60(TB) leukemia it was 32.9 µM.
As for `CCN(CC)C(=O)N[C@@H](Cc1ccccc1)C(=O)NC`, the TGI with IGROV1 ovarian, with ACHN renal, with NCI-H226 lung, with UACC-62 melanoma, in the assay with K-562 leukemia and in the assay with NCI-H460 lung was greater than 100 µM each time. The TGI with SW-620 colon, in the assay with SK-MEL-28 melanoma, with HS 578T breast, in the assay on MDA-N, with SK-MEL-5 melanoma and in the assay on MDA-MB-435 was greater than 100 µM each time. The TGI in the assay on SNB-75 CNS, in the assay on RXF 393 renal, in the assay with MDA-MB-231 breast, in the assay with MCF7 breast and in the assay on HL-60(TB) leukemia was greater than 100 µM each time.
Turning to `N#Cc1nc(C2SCCCS2)oc1N`, the TGI in the assay on IGROV1 ovarian, with ACHN renal, in the assay on UACC-62 melanoma, with K-562 leukemia, in the assay with SW-620 colon and with SK-MEL-28 melanoma was greater than 100 µM each time. In addition, the TGI with HS 578T breast was greater than 100 µM; in the assay with MDA-N, greater than 100 µM; in the assay on SK-MEL-5 melanoma, greater than 100 µM; with MDA-MB-435, greater than 100 µM; in the assay on SNB-75 CNS, 0.843 µM; in the assay on MDA-MB-231 breast it was greater than 100 µM. Moreover, the TGI in the assay with MCF7 breast, in the assay on HL-60(TB) leukemia and in the assay with HOP-92 NSCLC was greater than 100 µM throughout.
For `O=C1CSC(c2ccccc2[N+](=O)[O-])N1c1ccc(-n2c(-c3ccccc3)nc3ccccc3c2=O)cc1` (stereo unspecified), the TGI with IGROV1 ovarian is greater than 100 µM; in the assay on ACHN renal, greater than 100 µM; with NCI-H226 lung, 89.2 µM; in the assay with UACC-62 melanoma, greater than 100 µM; with K-562 leukemia, greater than 100 µM; with NCI-H460 lung, greater than 100 µM. For the same compound, the TGI with SW-620 colon was greater than 100 µM; in the assay on SK-MEL-28 melanoma, greater than 100 µM; in the assay on HS 578T breast, 54.8 µM; with MDA-N it was greater than 100 µM; in the assay with SK-MEL-5 melanoma it was greater than 100 µM; with MDA-MB-435 it was greater than 100 µM. In addition, the TGI in the assay with SNB-75 CNS is 34.9 µM; with MDA-MB-231 breast, greater than 100 µM; in the assay with MCF7 breast, greater than 100 µM; in the assay with HL-60(TB) leukemia, greater than 100 µM; in the assay with HOP-92 NSCLC, 60.2 µM.
As for `N#Cc1c(-c2ccccc2)c(C#N)c(=S)n(C2OCC(O)C(O)C2O)c1N` (stereo unspecified), the TGI with IGROV1 ovarian, with ACHN renal, with NCI-H226 lung, in the assay with UACC-62 melanoma, in the assay with K-562 leukemia and with NCI-H460 lung was greater than 100 µM throughout. The TGI with SW-620 colon, with SK-MEL-28 melanoma, in the assay on HS 578T breast, with MDA-N, in the assay on SK-MEL-5 melanoma and with MDA-MB-435 was greater than 100 µM each time. Moreover, the TGI in the assay with SNB-75 CNS, in the assay on RXF 393 renal, in the assay with MDA-MB-231 breast, in the assay with MCF7 breast and in the assay with HL-60(TB) leukemia was greater than 100 µM throughout. Moreover, the GI50 in the assay with RXF 393 renal was 26.7 µM and > 100 µM.
Consider `COc1cc2c(cc1OC)CN1CCc3ccccc3CC1C2` (stereo unspecified), for which the TGI with IGROV1 ovarian, with ACHN renal, in the assay on NCI-H226 lung, with UACC-62 melanoma, in the assay on K-562 leukemia and in the assay on NCI-H460 lung was greater than 100 µM throughout. The TGI with SW-620 colon, with SK-MEL-28 melanoma, with HS 578T breast, in the assay with MDA-N, with SK-MEL-5 melanoma and in the assay on MDA-MB-435 was greater than 100 µM throughout. The TGI in the assay with SNB-75 CNS, in the assay on MDA-MB-231 breast, in the assay on MCF7 breast, in the assay with HL-60(TB) leukemia and in the assay on HOP-92 NSCLC was greater than 100 µM each time.
`O=C(Oc1ccc(OC(Oc2ccccc2)c2ccccc2)cc1)c1ccccc1` (stereo unspecified): the TGI in the assay with IGROV1 ovarian is 23.4 µM; in the assay with ACHN renal, greater than 31.6 µM; in the assay with NCI-H226 lung, greater than 31.6 µM; in the assay on UACC-62 melanoma it was greater than 31.6 µM; in the assay on K-562 leukemia it was greater than 31.6 µM; with NCI-H460 lung, greater than 100 µM. Besides, the TGI was greater than 31.6 µM in the assay with SW-620 colon; 31 µM in the assay with SK-MEL-28 melanoma; greater than 31.6 µM in the assay with HS 578T breast; greater than 31.6 µM in the assay on MDA-N; greater than 31.6 µM with SK-MEL-5 melanoma; greater than 31.6 µM in the assay on MDA-MB-435. Besides, the TGI with SNB-75 CNS was greater than 31.6 µM; in the assay with RXF 393 renal it was greater than 100 µM; with MDA-MB-231 breast, greater than 31.6 µM; in the assay with MCF7 breast, greater than 31.6 µM; with HL-60(TB) leukemia, greater than 31.6 µM.
Regarding `CCCCCCCCCCCCCCC[C@@H](O)C[N+](C)(C)CCO`, the TGI with IGROV1 ovarian is 2.11 µM; in the assay on ACHN renal, 24.1 µM; in the assay on NCI-H226 lung it was 14 µM; in the assay on UACC-62 melanoma, 36.4 µM; in the assay on K-562 leukemia it was greater than 100 µM; with NCI-H460 lung, 5.01 µM. The TGI with SW-620 colon was greater than 45.4 µM; in the assay with SK-MEL-28 melanoma, 52.5 µM; in the assay with HS 578T breast, 7.53 µM; with MDA-N, 29.5 µM; in the assay on SK-MEL-5 melanoma it was 7.07 µM; in the assay with MDA-MB-435, 33.4 µM. In addition, the TGI with SNB-75 CNS was 7.54 µM; in the assay on MDA-MB-231 breast it was 7.85 µM; with MCF7 breast it was 33.6 µM; in the assay on HL-60(TB) leukemia, 0.36 µM; with HOP-92 NSCLC, greater than 39.7 µM.
Regarding `Cc1nc2ccc(S(=O)(=O)Nc3ccccc3Cl)cc2c(=O)n1NC(=O)CNc1ccccc1Cl`, the TGI in the assay on IGROV1 ovarian, in the assay on ACHN renal, with NCI-H226 lung, in the assay with UACC-62 melanoma, in the assay on K-562 leukemia and in the assay with NCI-H460 lung was greater than 100 µM throughout. The TGI in the assay on SW-620 colon, in the assay with SK-MEL-28 melanoma, with HS 578T breast, in the assay with MDA-N, in the assay with MDA-MB-435 and in the assay with SNB-75 CNS was greater than 100 µM each time. Further, the TGI in the assay on MDA-MB-231 breast, with MCF7 breast, in the assay with HL-60(TB) leukemia and in the assay with HOP-92 NSCLC was greater than 100 µM each time.
Take `COc1ccc2[nH]cc(CN3CCC(CO)(c4ccccc4)CC3)c2c1`: the TGI in the assay with IGROV1 ovarian was greater than 100 µM; in the assay on ACHN renal, 47.8 µM; in the assay on NCI-H226 lung, greater than 100 µM; in the assay with UACC-62 melanoma, 92.2 µM; with K-562 leukemia it was 43.1 µM; in the assay on NCI-H460 lung, greater than 100 µM. For the same compound, the TGI in the assay on SW-620 colon was 47.8 µM; in the assay on SK-MEL-28 melanoma it was 33.3 µM; with HS 578T breast, 70.9 µM; in the assay on MDA-N it was 38.3 µM; in the assay on SK-MEL-5 melanoma it was 27.1 µM; with MDA-MB-435, 47.6 µM. The TGI was 87.6 µM in the assay on SNB-75 CNS; greater than 100 µM in the assay on RXF 393 renal; 80.9 µM in the assay on MDA-MB-231 breast; 37.9 µM with MCF7 breast; 48.5 µM in the assay on HL-60(TB) leukemia.
